Converted amounts (≈) assume the structure as drawn. Where two headings read alike, the source gives them in different places.
What was measured:
[1] = biological target: T1, beta-catenin/TCF4 engagement (Homo sapiens, UniProt P35222); test: Nano-BRET target engagement assay (B-cat-Halo & TCF4-Luc in HEK293 cells); type: cell-based; conditions: absolute IC50; read-out: NanoBRET Abs IC50
T1 construct: expressed in transfected cells; host or cells: HEK293
T1 sequence (P35222 1-781): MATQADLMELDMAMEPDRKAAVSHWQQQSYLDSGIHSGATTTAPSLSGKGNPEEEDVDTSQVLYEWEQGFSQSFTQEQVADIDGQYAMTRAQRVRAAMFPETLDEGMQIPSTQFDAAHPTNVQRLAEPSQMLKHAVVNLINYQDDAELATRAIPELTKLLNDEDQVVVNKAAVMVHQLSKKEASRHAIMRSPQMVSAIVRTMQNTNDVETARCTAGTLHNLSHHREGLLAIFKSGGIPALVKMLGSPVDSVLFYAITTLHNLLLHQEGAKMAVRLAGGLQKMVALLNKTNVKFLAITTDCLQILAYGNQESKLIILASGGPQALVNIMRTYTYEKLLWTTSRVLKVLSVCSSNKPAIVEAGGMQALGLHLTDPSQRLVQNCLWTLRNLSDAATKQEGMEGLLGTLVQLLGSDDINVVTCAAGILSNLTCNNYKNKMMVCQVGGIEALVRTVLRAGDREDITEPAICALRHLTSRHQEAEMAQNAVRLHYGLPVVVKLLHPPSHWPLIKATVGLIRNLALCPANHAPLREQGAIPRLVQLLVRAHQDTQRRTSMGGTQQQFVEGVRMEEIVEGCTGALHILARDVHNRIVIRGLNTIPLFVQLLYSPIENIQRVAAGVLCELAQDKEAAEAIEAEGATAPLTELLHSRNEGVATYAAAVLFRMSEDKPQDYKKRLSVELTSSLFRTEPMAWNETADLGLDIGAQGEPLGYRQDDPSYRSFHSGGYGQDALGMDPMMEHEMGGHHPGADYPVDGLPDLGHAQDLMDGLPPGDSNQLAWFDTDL

[2] = biological target: T2, full-length beta-Catenin (Uniprot ID P35222) (Homo sapiens, UniProt P35222); test: Fluorescence polarization IC50 (beta-catenin / 5FAM-TCF4 10-53 competition); type: binding; conditions: read-out: beta-Catenin FP IC50
T2 construct: 10 nM full-length beta-Catenin (Uniprot ID P35222)
T2 sequence (P35222 1-781): T1 sequence (P35222 1-781)

Solubility in PBS = type: physicochemical
Procedure, shortened: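 PBS sample ultracentrifuged; supernatant run on HPLC vs. 50 μM peptide in DMSO standard. Solubility = (PBS peak area / DMSO peak area) × 50 uM.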

Row | SMILES | IC50 [1] | IC50 ([2]; fluorescence polarization) | Solubility (Solubility in PBS) | Solubility (Solubility in PBS; Solubility (uM)) | IC50 [2]
1 | CC(=O)N1CCC[C@]12CC=CCCCC1(CCCC=CCCCOC(=O)N3CC[C@@](C(=O)N[C@@H](Cc4ccccc4)C(=O)N[C@@H](Cc4csc5ccccc45)C(=O)N[C@@H](CO)C(N)=O)(C3)NC(=O)[C@H]([C@@H](C)O)NC(=O)[C@H](Cc3ccc4ccccc4c3)NC(=O)[C@H](C)NC(=O)[C@H](C)NC(=O)[C@H]([C@@H](C)O)NC(=O)[C@H](CC(=O)O)NC1=O)NC(=O)[C@H](CC(C)(C)C)NC(=O)[C@H](CC(=O)O)NC2=O (stereo partly drawn) [I-1267, Ac-PL3-Asp-Npg-B5-Asp-Thr-Ala-Ala-2NapA-Thr-PyrS2-Phe-BztA-Ser-NH2] | 36.9 µM | 0.181 µM | 10 µM (≈ 18.9 µg/mL) | – | –
2 | CC(=O)N1CCC[C@]12CC=CCCCC1(CCCC=CCCCOC(=O)N3CC[C@@](C(=O)N[C@@H](Cc4ccsc4)C(=O)N[C@@H](Cc4csc5ccccc45)C(=O)N[C@@H](CCC(N)=O)C(N)=O)(C3)NC(=O)[C@H](CC(C)C)NC(=O)[C@H](Cc3ccccc3)NC(=O)[C@H](C)NC(=O)[C@H](C)NC(=O)[C@H](CC(=O)O)NC(=O)[C@H](CC(N)=O)NC1=O)NC(=O)[C@H](CC(C)(C)C)NC(=O)[C@H](CC(=O)O)NC2=O (stereo partly drawn) [I-1207, Ac-PL3-Asp-Npg-B5-Asn-Asp-Ala-Ala-Phe-Leu-PyrS2-3Thi-BztA-Gln-NH2] | 7.5 µM | 0.04 µM | – | 11 µM (≈ 21.1 µg/mL) | –
3 | C[C@@H]1NC(=O)[C@H](C)NC(=O)[C@H](CC(=O)O)NC(=O)[C@H](CC(=O)O)NC(=O)C2(CCCC=CCCCCCC[C@@](C)(C(=O)N[C@@H](Cc3ccccc3Cl)C(=O)N[C@@H](Cc3csc4ccccc34)C(=O)N[C@@H](CCC(N)=O)C(N)=O)NC(=O)[C@H]([C@@H](C)O)NC(=O)[C@H](Cc3ccccc3)NC1=O)CCCC=CC[C@]1(CCCN1S(C)(=O)=O)C(=O)N[C@@H](CC(=O)O)C(=O)N[C@@H](CC(C)(C)C)C(=O)N2 (stereo partly drawn) [I-1260, MeSO2-PL3-Asp-Npg-B5-Asp-Asp-Ala-Ala-Phe-Thr-S8-2C1F-BztA-Gln-NH2] | 24 µM | 0.023 µM | 50 µM (≈ 96.3 µg/mL) | – | –
4 | CC(=O)N1CCC[C@]12CC=CCCCC1(CCCC=CCCCOC(=O)N3CC[C@@](C(=O)N[C@@H](Cc4ccccc4Cl)C(=O)N[C@@H](Cc4csc5ccccc45)C(=O)N[C@@H](C(N)=O)[C@H](C)O)(C3)NC(=O)[C@H](CO)NC(=O)[C@H](Cc3ccccc3)NC(=O)[C@H](C)NC(=O)[C@H](C)NC(=O)[C@H](CC(=O)O)NC(=O)[C@H](CC(=O)O)NC1=O)NC(=O)[C@H](CC1CCCCC1)NC(=O)[C@H](CC(=O)O)NC2=O (stereo partly drawn) [I-1136, Ac-PL3-Asp-Cha-B5-Asp-Asp-Ala-Ala-Phe-Ser-PyrS2-2C1F-BztA-dThr-NH2] | 14.9 µM | 0.016 µM | – | 40 µM (≈ 76.7 µg/mL) | –
5 | CC(=O)N1CCC[C@]12CC=CCCCC1(CCCC=CCCCOC(=O)N3CC[C@@](C(=O)N[C@@H](Cc4c(F)c(F)c(F)c(F)c4F)C(=O)N[C@@H](Cc4csc5ccccc45)C(=O)N[C@@H](CO)C(N)=O)(C3)NC(=O)[C@H]([C@@H](C)O)NC(=O)[C@H](Cc3ccccc3)NC(=O)[C@H](C)NC(=O)[C@H](C)NC(=O)[C@H](CC(=O)O)NC(=O)[C@H](CC(=O)O)NC1=O)NC(=O)[C@H](CC1CCCCC1)NC(=O)[C@H](CC(=O)O)NC2=O (stereo partly drawn) [I-1187, Ac-PL3-Asp-Cha-B5-Asp-Asp-Ala-Ala-Phe-Thr-PyrS2-Pff-BztA-Ser-NH2] | 28.6 µM | 0.0805 µM | – | 42 µM (≈ 82.9 µg/mL) | –
6 | CC(=O)N1CCC[C@]12CC=CCCCC1(CCCC=CCCCOC(=O)N3CC[C@@](C(=O)N[C@@H](Cc4ccccc4Cl)C(=O)N[C@@H](Cc4csc5ccccc45)C(=O)N[C@@H](CCC(N)=O)C(N)=O)(C3)NC(=O)[C@H](CC(N)=O)NC(=O)[C@H](Cc3ccccc3)NC(=O)[C@H](C)NC(=O)[C@H](CCCCNC(C)C)NC(=O)[C@H](CC(=O)O)NC(=O)[C@H](CC(=O)O)NC1=O)NC(=O)[C@H](CC(C)(C)C)NC(=O)[C@H](CC(=O)O)NC2=O (stereo partly drawn) [I-1131, Ac-PL3-Asp-Npg-B5-Asp-Asp-iPrLys-Ala-Phe-Asn-PyrS2-2C1F-BztA-Gln-NH2] | 18.8 µM | – | – | 39 µM (≈ 79.8 µg/mL) | 0.007 µM
7 | CC(=O)N1CCC[C@]12CC=CCCCC1(CCCC=CCCCOC(=O)N3CC[C@@](C(=O)N[C@@H](Cc4ccccc4Cl)C(=O)N[C@@H](Cc4csc5ccccc45)C(=O)N[C@@H](CCC(N)=O)C(N)=O)(C3)NC(=O)[C@H]([C@@H](C)O)NC(=O)[C@H](Cc3ccccc3)NC(=O)[C@H](C)NC(=O)[C@H](C)NC(=O)[C@H]([C@@H](C)O)NC(=O)[C@H](CC(=O)O)NC1=O)NC(=O)[C@H](CC1CCCCC1)NC(=O)[C@H](CC(=O)O)NC2=O (stereo partly drawn) [I-1175, Ac-PL3-Asp-Cha-B5-Asp-Thr-Ala-Ala-Phe-Thr-PyrS2-2C1F-BztA-Gln-NH2] | 27.3 µM | 0.024 µM | 10 µM (≈ 19.5 µg/mL) | – | –
8 | CC(=O)N1CCC[C@]12CC=CCCCC1(CCCC=CCCCOC(=O)N3CC[C@@](C(=O)N[C@@H](Cc4ccccc4Cl)C(=O)N[C@@H](Cc4csc5ccccc45)C(=O)N[C@@H](C(N)=O)[C@H](C)O)(C3)NC(=O)[C@H](CO)NC(=O)[C@H](Cc3ccccc3)NC(=O)[C@H](C)NC(=O)[C@H](C)NC(=O)[C@H](CC(=O)O)NC(=O)[C@H](CC(=O)O)NC1=O)NC(=O)[C@H](Cc1ccccc1)NC(=O)[C@H](CC(=O)O)NC2=O (stereo partly drawn) [I-1142, Ac-PL3-Asp-Phe-B5-Asp-Asp-Ala-Ala-Phe-Ser-PyrS2-2C1F-BztA-dThr-NH2] | > 20 µM | 0.022 µM | – | 46 µM (≈ 88 µg/mL) | –
9 | CC(=O)N1CCC[C@]12CC=CCCCC1(CCCC=CCCCOC(=O)N3CC[C@@](C(=O)N[C@@H](Cc4ccsc4)C(=O)N[C@@H](Cc4csc5ccccc45)C(=O)N[C@@H](CCC(N)=O)C(N)=O)(C3)NC(=O)[C@H](CC(C)C)NC(=O)[C@H](Cc3ccccc3)NC(=O)[C@H](C)NC(=O)C(C)(C)NC(=O)[C@H](CC(=O)O)NC(=O)[C@H](CC(=O)O)NC1=O)NC(=O)[C@H](CC(C)(C)C)NC(=O)[C@H](CC(=O)O)NC2=O (stereo partly drawn) [I-1177, Ac-PL3-Asp-Npg-B5-Asp-Asp-Aib-Ala-Phe-Leu-PyrS2-3Thi-BztA-Gln-NH2] | 4.3 µM | 0.025 µM | – | 35 µM (≈ 67.6 µg/mL) | –
10 | CC(=O)N1CCC[C@]12CC=CCCCC1(CCCC=CCCCOC(=O)N3CC[C@@](C(=O)N[C@@H](Cc4ccccc4)C(=O)N[C@@H](Cc4csc5ccccc45)C(=O)N[C@@H](CO)C(N)=O)(C3)NC(=O)[C@H]([C@@H](C)O)NC(=O)[C@H](Cc3cccc4ccccc34)NC(=O)[C@H](C)NC(=O)[C@H](C)NC(=O)[C@H]([C@@H](C)O)NC(=O)[C@H](CC(=O)O)NC1=O)NC(=O)[C@H](CC(C)(C)C)NC(=O)[C@H](CC(=O)O)NC2=O (stereo partly drawn) [I-1266, Ac-PL3-Asp-Npg-B5-Asp-Thr-Ala-Ala-1NapA-Thr-PyrS2-Phe-BztA-Ser-NH2] | > 20 µM | 0.755 µM | 10 µM (≈ 18.9 µg/mL) | – | –
11 | CC(=O)N1CCC[C@]12CC=CCCCC1(CCCC=CCCCOC(=O)N3CC[C@@](C(=O)N[C@@H](Cc4ccsc4)C(=O)N[C@@H](Cc4csc5ccccc45)C(=O)N[C@@H](CO)C(N)=O)(C3)NC(=O)[C@H]([C@@H](C)O)NC(=O)[C@H](Cc3ccccc3)NC(=O)[C@H](C)NC(=O)[C@H](C)NC(=O)[C@H]([C@@H](C)O)NC(=O)[C@H](CC(=O)O)NC1=O)NC(=O)[C@H](CC(C)(C)C)NC(=O)[C@H](CC(=O)O)NC2=O (stereo partly drawn) [I-1170, Ac-PL3-Asp-Npg-B5-Asp-Thr-Ala-Ala-Phe-Thr-PyrS2-3Thi-BztA-Ser-NH2] | 13.5 µM | 0.015 µM | 10 µM (≈ 18.5 µg/mL) | – | –
12 | CC(=O)N1CCC[C@]12CC=CCCCC1(CCCC=CCCCOC(=O)N3CC[C@@](C(=O)N[C@@H](Cc4ccccc4Cl)C(=O)N[C@@H](Cc4csc5ccccc45)C(=O)N[C@H](CO)[C@@H](C)O)(C3)NC(=O)[C@H]([C@@H](C)O)NC(=O)[C@H](Cc3ccccc3)NC(=O)[C@H](C)NC(=O)[C@H](C)NC(=O)[C@H]([C@@H](C)O)NC(=O)[C@H](CC(=O)O)NC1=O)NC(=O)[C@H](CC(C)(C)C)NC(=O)[C@H](CC(=O)O)NC2=O (stereo partly drawn) [I-1309, Ac-PL3-Asp-Npg-B5-Asp-Thr-Ala-Ala-Phe-Thr-PyrS2-2C1F-BztA-Thro1] | 28.6 µM | 0.059 µM | 10 µM (≈ 18.8 µg/mL) | – | –
13 | CC(=O)N1CCC[C@]12CC=CCCCC1(CCCC=CCCCOC(=O)N3CC[C@@](C(=O)N[C@@H](Cc4cccc5ccccc45)C(=O)N[C@@H](Cc4csc5ccccc45)C(=O)N[C@@H](CO)C(N)=O)(C3)NC(=O)[C@H]([C@@H](C)O)NC(=O)[C@H](Cc3ccccc3)NC(=O)[C@H](C)NC(=O)[C@H](C)NC(=O)[C@H]([C@@H](C)O)NC(=O)[C@H](CC(=O)O)NC1=O)NC(=O)[C@H](CC(C)(C)C)NC(=O)[C@H](CC(=O)O)NC2=O (stereo partly drawn) [I-1269, Ac-PL3-Asp-Npg-B5-Asp-Thr-Ala-Ala-Phe-Thr-PyrS2-1NapA-BztA-Ser-NH2] | 17.6 µM | 0.173 µM | 10 µM (≈ 18.9 µg/mL) | – | –

— patent publication US20240116985A1, “STAPLED PEPTIDES AND METHODS THEREOF” (priority 2020, published 2024)
